Test results published in ChEMBL document CHEMBL4392880, “Bioactive Diterpenoids from the Stems of Euphorbia antiquorum” (J Nat Prod, 2019).

How the values were obtained:
BV-2 [1] = assay: Antiinflammatory activity in mouse BV2 cells assessed as inhibition of LPS-induced nitric oxide production incubated for 24 hrs by Griess assay; assay type: functional, cell-based; settings: BV-2, 24 h
BV-2 [2] = assay: Cytotoxicity against mouse BV2 cells assessed as effect on cell survival by MTT assay; assay type: cell-based

| SMILES | IC50 (BV-2 [1]) | Activity (BV-2 [2]) |
| --- | --- | --- |
| CCC(=O)OC[C@]1(C)C(=O)CC[C@@]2(C)[C@@H]3C[C@@H]4CC[C@@]3(CC[C@@H]21)C[C@@]4(O)CO | 76.6 µM | Non-Toxic |
| CSC(=N)N.O=S(=O)(O)O | 3.1 µM | Non-Toxic |
| CCCC(=O)OC[C@]1(C)C(=O)CC[C@@]2(C)[C@@H]3C[C@@H]4CC[C@@]3(CC[C@@H]21)C[C@@]4(O)CO | 42.4 µM | Non-Toxic |
| C=C[C@]1(C)C=C2CC[C@H]3[C@](C)(C=O)[C@@H](O)CC[C@]3(C)[C@H]2CC1 [SANDARACOPIMARADIENOLAL] | > 10 µM | Non-Toxic |
| CCCC(=O)OC[C@]1(C)C(=O)CC[C@@]2(C)[C@@H]3CC[C@@H]4C[C@@]3(CC[C@@H]21)C[C@@]4(O)CO | 42.9 µM | Non-Toxic |
| C=C1C[C@@]23CC[C@H]4[C@@](C)(CCC(=O)[C@@]4(C)COC(=O)CCC)[C@@H]2C[C@@H]1CC3=O | > 60 µM | Non-Toxic |
| C/C=C(\C)C(=O)O[C@H]1[C@H]2[C@@H]([C@@H](OC(C)=O)[C@@H](C)C(=O)[C@@]34C[C@H](C)[C@H](OC(=O)/C(C)=C/C)[C@]3(/C=C(\C)[C@H]1O)O4)C2(C)C | 26.9 µM | Non-Toxic |
| C=C1C[C@@]23CC[C@H]4[C@@](C)(CCC(=O)[C@@]4(C)COC(=O)CCC)[C@@H]2C[C@@H]1[C@@H](O)C3=O | > 100 µM | Non-Toxic |
| C/C=C(\C)C(=O)O[C@H]1[C@H]2[C@@H]([C@@H](OC(C)=O)[C@@H](C)C(=O)[C@@]34C[C@H](C)[C@H](OC(=O)c5ccccc5)[C@]3(/C=C(\C)[C@H]1O)O4)C2(C)C | 14.5 µM | Non-Toxic |
| C/C=C(\C)C(=O)O[C@H]1[C@H]2[C@@H]([C@@H](OC(C)=O)[C@@H](C)C(=O)[C@@]34C[C@H](C)[C@H](OC(C)=O)[C@]3(/C=C(\C)[C@H]1O)O4)C2(C)C | > 100 µM | Non-Toxic |

Further lines, with some results ahead:

| IC50 (BV-2 [1]) | SMILES | Activity (BV-2 [2]) |
| --- | --- | --- |
| 24.1 µM | CC(=O)O[C@H]1CCC(C)(C)[C@H]2CC[C@@]34O[C@@H]3C3=C(C)C(=O)O[C@@H]3C[C@H]4[C@]12C | Non-Toxic |
| > 100 µM | CC1(C)C(=O)CC[C@]2(C)[C@@H]1CC[C@@]13C[C@H](CC[C@H]12)[C@@](O)(CO)C3 | Non-Toxic |
| 9.1 µM | CC1(C)CCC[C@]2(C)[C@@H]1CC[C@@]13O[C@@H]1C1=C(CO)C(=O)OC1=C[C@@H]23 | Non-Toxic |
| 15 µM | CC1=C2[C@H]3O[C@]34CC[C@@H]3C(C)(C)CCC[C@@]3(C)[C@@H]4C[C@H]2OC1=O | Non-Toxic |
| 77 µM | C=C1C[C@@]23CC[C@H]4[C@@](C)(CCC(=O)[C@@]4(C)COC(C)=O)[C@@H]2C[C@@H]1CC3=O | Non-Toxic |
| 28.8 µM | C=C1C[C@@]23CC[C@H]4[C@@](C)(CCC(=O)[C@@]4(C)COC(=O)/C(C)=C/C)[C@@H]2C[C@@H]1CC3=O | Non-Toxic |
| 25.4 µM | C=C1C[C@]23CC[C@H]1C[C@H]2[C@]1(C)CCC(=O)[C@@](C)(CO)[C@H]1CC3 | Non-Toxic |
| 44.3 µM | C=C1C[C@@]23CC[C@H]4[C@@](C)(CCC(=O)[C@@]4(C)COC(=O)/C(C)=C/C)[C@@H]2C[C@@H]1[C@@H](O)C3=O | Non-Toxic |
| > 100 µM | C=C1C[C@@]23CC[C@H]4[C@@](C)(CCC(=O)[C@@]4(C)COC(C)=O)[C@@H]2C[C@@H]1[C@@H](O)C3=O | Non-Toxic |
